Assay results from patent US12404262B2 (priority 2021, dated 2025).

Details: 1.0% DMSO, 24-hour incubation at ambient temperature, maximum theoretical 100 μM; for pH 2 solubility: 0.1N HCl, first value of the cell; for pH 7 solubility: 1×PBS buffer (pH 7.4), second value of the cell

| Compound | pH 2 solubility | pH 7 solubility |
| --- | --- | --- |
| CC(=O)N(c1nn(CC(F)(F)F)c2c(-c3ccc(C#CC(C)(C)S(C)(=O)=O)nc3[C@H](Cc3cc(F)cc(F)c3)NC(=O)Cn3nc(C(F)(F)F)c4c3C(F)(F)[C@@H]3C[C@H]43)ccc(Cl)c12)S(C)(=O)=O [Compound 1, N—((S)-1-(3-(4-chloro-3-(N-(methylsulfonyl)acetamido)-1-(2,2,2-trifluoroethyl)-1H-indazol-7-yl)-6-(3-methyl-3-(methylsulfonyl)but-1-yn-1-yl)pyridin-2-yl)-2-(3,5-difluorophenyl)ethyl)-2-((3bS,4aR)-5,5-difluoro-3-(trifluoromethyl)-3b,4,4a,5-tetrahydro-1H-cyclopropa[3,4]cyclopenta[1,2-c]pyrazol-1-yl)acetamide] | 1/1 μM | 1/1 μM |
| CC(C)(C#Cc1ccc(-c2ccc(Cl)c3c(N(C(=O)CN4CCOCC4)S(C)(=O)=O)nn(CC(F)(F)F)c23)c([C@H](Cc2cc(F)cc(F)c2)NC(=O)Cn2nc(C(F)(F)F)c3c2C(F)(F)[C@@H]2C[C@H]32)n1)S(C)(=O)=O [Compound 4, (N-(4-chloro-7-(2-((S)-1-(2-((3bS,4aR)-5,5-difluoro-3-(trifluoromethyl)-3b,4,4a,5-tetrahydro-1H-cyclopropa[3,4]cyclopenta[1,2-c]pyrazol-1-yl)acetamido)-2-(3,5-difluorophenyl)ethyl)-6-(3-methyl-3-(methylsulfonyl)but-1-yn-1-yl)pyridin-3-yl)-1-(2,2,2-trifluoroethyl)-1H-indazol-3-yl)-N-(methylsulfonyl)-2-morpholinoacetamide)] | 33 μM | 7 μM |
| CC(C)(C#Cc1ccc(-c2ccc(Cl)c3c(N(C(=O)CCN4CCOCC4)S(C)(=O)=O)nn(CC(F)(F)F)c23)c([C@H](Cc2cc(F)cc(F)c2)NC(=O)Cn2nc(C(F)(F)F)c3c2C(F)(F)[C@@H]2C[C@H]32)n1)S(C)(=O)=O [Compound 5, N-(4-chloro-7-(2-((S)-1-(2-((3bS,4aR)-5,5-difluoro-3-(trifluoromethyl)-3b,4,4a,5-tetrahydro-1H-cyclopropa [3,4]cyclopenta [1,2-c]pyrazol-1-yl)acetamido)-2-(3,5-difluorophenyl)ethyl)-6-(3-methyl-3-(methylsulfonyl)but-1-yn-1-yl)pyridin-3-yl)-1-(2,2,2-trifluoroethyl)-1H-indazol-3-yl)-N-(methylsulfonyl)-3-morpholinopropanamide] | 39 μM | 9 μM |
| CN1CCN(CC(=O)N(c2nn(CC(F)(F)F)c3c(-c4ccc(C#CC(C)(C)S(C)(=O)=O)nc4[C@H](Cc4cc(F)cc(F)c4)NC(=O)Cn4nc(C(F)(F)F)c5c4C(F)(F)[C@@H]4C[C@H]54)ccc(Cl)c23)S(C)(=O)=O)CC1 [Compound 6, (N-(4-chloro-7-(2-((S)-1-(2-((3bS,4aR)-5,5-difluoro-3-(trifluoromethyl)-3b,4,4a,5-tetrahydro-1H-cyclopropa[3,4]cyclopenta[1,2-c]pyrazol-1-yl)acetamido)-2-(3,5-difluorophenyl)ethyl)-6-(3-methyl-3-(methylsulfonyl)but-1-yn-1-yl)pyridin-3-yl)-1-(2,2,2-trifluoroethyl)-1H-indazol-3-yl)-2-(4-methylpiperazin-1-yl)-N-(methylsulfonyl)acetamide)] | 50 μM | 3 μM |
| CC(C)(C#Cc1ccc(-c2ccc(Cl)c3c(N(C(=O)CN4CCNCC4)S(C)(=O)=O)nn(CC(F)(F)F)c23)c([C@H](Cc2cc(F)cc(F)c2)NC(=O)Cn2nc(C(F)(F)F)c3c2C(F)(F)[C@@H]2C[C@H]32)n1)S(C)(=O)=O [Compound 7, (N-(4-chloro-7-(2-((S)-1-(2-((3bS,4aR)-5,5-difluoro-3-(trifluoromethyl)-3b,4,4a,5-tetrahydro-1H-cyclopropa[3,4]cyclopenta[1,2-c]pyrazol-1-yl)acetamido)-2-(3,5-difluorophenyl)ethyl)-6-(3-methyl-3-(methylsulfonyl)but-1-yn-1-yl)pyridin-3-yl)-1-(2,2,2-trifluoroethyl)-1H-indazol-3-yl)-N-(methylsulfonyl)-2-(piperazin-1-yl)acetamide)] | 65 μM | 7 μM |
| CC(C)(C#Cc1ccc(-c2ccc(Cl)c3c(N(C(=O)CN4CCN(C(=N)N)CC4)S(C)(=O)=O)nn(CC(F)(F)F)c23)c([C@H](Cc2cc(F)cc(F)c2)NC(=O)Cn2nc(C(F)(F)F)c3c2C(F)(F)[C@@H]2C[C@H]32)n1)S(C)(=O)=O [Compound 8, 2-(4-carbamimidoylpiperazin-1-yl)-N-(4-chloro-7-(2-((S)-1-(2-((3bS,4aR)-5,5-difluoro-3-(trifluoromethyl)-3b,4,4a,5-tetrahydro-1H-cyclopropa[3,4]cyclopenta[1,2-c]pyrazol-1-yl)acetamido)-2-(3,5-difluorophenyl)ethyl)-6-(3-methyl-3-(methylsulfonyl)but-1-yn-1-yl)pyridin-3-yl)-1-(2,2,2-trifluoroethyl)-1H-indazol-3-yl)-N-(methylsulfonyl)acetamide] | 57 μM | 6 μM |
| CC(C)(C#Cc1ccc(-c2ccc(Cl)c3c(N(C(=O)CCN4CCNCC4)S(C)(=O)=O)nn(CC(F)(F)F)c23)c([C@H](Cc2cc(F)cc(F)c2)NC(=O)Cn2nc(C(F)(F)F)c3c2C(F)(F)[C@@H]2C[C@H]32)n1)S(C)(=O)=O [Compound 9, N-(4-chloro-7-(2-((S)-1-(2-((3bS,4aR)-5,5-difluoro-3-(trifluoromethyl)-3b,4,4a,5-tetrahydro-1H-cyclopropa[3,4]cyclopenta[1,2-c]pyrazol-1-yl)acetamido)-2-(3,5-difluorophenyl)ethyl)-6-(3-methyl-3-(methylsulfonyl)but-1-yn-1-yl)pyridin-3-yl)-1-(2,2,2-trifluoroethyl)-1H-indazol-3-yl)-N-(methylsulfonyl)-3-(piperazin-1-yl)propanamide] | 2 μM | 21 μM |
| CC(C)(C#Cc1ccc(-c2ccc(Cl)c3c(N(C(=O)C(N)=O)S(C)(=O)=O)nn(CC(F)(F)F)c23)c([C@H](Cc2cc(F)cc(F)c2)NC(=O)Cn2nc(C(F)(F)F)c3c2C(F)(F)[C@@H]2C[C@H]32)n1)S(C)(=O)=O [Compound 10, N1-(4-chloro-7-(2-((S)-1-(2-((3bS,4aR)-5,5-difluoro-3-(trifluoromethyl)-3b,4,4a,5-tetrahydro-1H-cyclopropa[3,4]cyclopenta[1,2-c]pyrazol-1-yl)acetamido)-2-(3,5-difluorophenyl)ethyl)-6-(3-methyl-3-(methylsulfonyl)but-1-yn-1-yl)pyridin-3-yl)-1-(2,2,2-trifluoroethyl)-1H-indazol-3-yl)-N1-(methylsulfonyl)oxalamide] | 2/2 μM | 2/2 μM |
| CC(C)(C#Cc1ccc(-c2ccc(Cl)c3c(N(C(=O)C(=O)NCCP(=O)(O)O)S(C)(=O)=O)nn(CC(F)(F)F)c23)c([C@H](Cc2cc(F)cc(F)c2)NC(=O)Cn2nc(C(F)(F)F)c3c2C(F)(F)[C@@H]2C[C@H]32)n1)S(C)(=O)=O [Compound 11, (2-(2-(N-(4-chloro-7-(2-((S)-1-(2-((3bS,4aR)-5,5-difluoro-3-(trifluoromethyl)-3b,4,4a,5-tetrahydro-1H-cyclopropa[3,4]cyclopenta[1,2-c]pyrazol-1-yl)acetamido)-2-(3,5-difluorophenyl)ethyl)-6-(3-methyl-3-(methylsulfonyl)but-1-yn-1-yl)pyridin-3-yl)-1-(2,2,2-trifluoroethyl)-1H-indazol-3-yl)methylsulfonamido)-2-oxoacetamido)ethyl)phosphonic acid] | 5 μM | 36 μM |
| CC(C)(C#Cc1ccc(-c2ccc(Cl)c3c(N(C(=O)C(=O)N[C@@H](CC(=O)O)C(=O)O)S(C)(=O)=O)nn(CC(F)(F)F)c23)c([C@H](Cc2cc(F)cc(F)c2)NC(=O)Cn2nc(C(F)(F)F)c3c2C(F)(F)[C@@H]2C[C@H]32)n1)S(C)(=O)=O [Compound 12, (2-(N-(4-chloro-7-(2-((S)-1-(2-((3bS,4aR)-5,5-difluoro-3-(trifluoromethyl)-3b,4,4a,5-tetrahydro-1H-cyclopropa[3,4]cyclopenta[1,2-c]pyrazol-1-yl)acetamido)-2-(3,5-difluorophenyl)ethyl)-6-(3-methyl-3-(methylsulfonyl)but-1-yn-1-yl)pyridin-3-yl)-1-(2,2,2-trifluoroethyl)-1H-indazol-3-yl)methylsulfonamido)-2-oxoacetyl)-L-aspartic acid] | 10/10 μM | 10/10 μM |
| CCOC(=O)C(=O)N(c1nn(CC(F)(F)F)c2c(-c3ccc(C#CC(C)(C)S(C)(=O)=O)nc3[C@H](Cc3cc(F)cc(F)c3)NC(=O)Cn3nc(C(F)(F)F)c4c3C(F)(F)[C@@H]3C[C@H]43)ccc(Cl)c12)S(C)(=O)=O [Compound 14, ethyl 2-(N-(4-chloro-7-(2-((S)-1-(2-((3bS,4aR)-5,5-difluoro-3-(trifluoromethyl)-3b,4,4a,5-tetrahydro-1H-cyclopropa[3,4]cyclopenta[1,2-c]pyrazol-1-yl)acetamido)-2-(3,5-difluorophenyl)ethyl)-6-(3-methyl-3-(methylsulfonyl)but-1-yn-1-yl)pyridin-3-yl)-1-(2,2,2-trifluoroethyl)-1H-indazol-3-yl)methylsulfonamido)-2-oxoacetate] | 1/1 μM | 1/1 μM |
| COC(=O)C(=O)N(c1nn(CC(F)(F)F)c2c(-c3ccc(C#CC(C)(C)S(C)(=O)=O)nc3[C@H](Cc3cc(F)cc(F)c3)NC(=O)Cn3nc(C(F)(F)F)c4c3C(F)(F)[C@@H]3C[C@H]43)ccc(Cl)c12)S(C)(=O)=O [Compound 15, methyl 2-(N-(4-chloro-7-(2-((S)-1-(2-((3bS,4aR)-5,5-difluoro-3-(trifluoromethyl)-3b,4,4a,5-tetrahydro-1H-cyclopropa[3,4]cyclopenta[1,2-c]pyrazol-1-yl)acetamido)-2-(3,5-difluorophenyl)ethyl)-6-(3-methyl-3-(methylsulfonyl)but-1-yn-1-yl)pyridin-3-yl)-1-(2,2,2-trifluoroethyl)-1H-indazol-3-yl)methylsulfonamido)-2-oxoacetate] | 1/1 μM | 1/1 μM |
